In US20100056524A1, “Compound” (priority 2008, published 2010):
Counter-ions that a name gives are not always drawn. Like-named read-outs stand apart in the source and are kept apart here.

Tests used:
BRSK2 = target: T1, BRSK2 (Homo sapiens, UniProt Q8IWQ3); test: BRSK2 protein kinase assay; assay type: biochemical; conditions: for remaining activity at 10 µM: 10 μM compound; for residual kinase activity BRSK2: 1 μm compound; for remaining activity at 1 µM: 1 μM compound
T1 construct: All protein kinases were of human origin and encoded full length proteins, unless indicated otherwise; made in house
T1 sequence (Q8IWQ3 1-736): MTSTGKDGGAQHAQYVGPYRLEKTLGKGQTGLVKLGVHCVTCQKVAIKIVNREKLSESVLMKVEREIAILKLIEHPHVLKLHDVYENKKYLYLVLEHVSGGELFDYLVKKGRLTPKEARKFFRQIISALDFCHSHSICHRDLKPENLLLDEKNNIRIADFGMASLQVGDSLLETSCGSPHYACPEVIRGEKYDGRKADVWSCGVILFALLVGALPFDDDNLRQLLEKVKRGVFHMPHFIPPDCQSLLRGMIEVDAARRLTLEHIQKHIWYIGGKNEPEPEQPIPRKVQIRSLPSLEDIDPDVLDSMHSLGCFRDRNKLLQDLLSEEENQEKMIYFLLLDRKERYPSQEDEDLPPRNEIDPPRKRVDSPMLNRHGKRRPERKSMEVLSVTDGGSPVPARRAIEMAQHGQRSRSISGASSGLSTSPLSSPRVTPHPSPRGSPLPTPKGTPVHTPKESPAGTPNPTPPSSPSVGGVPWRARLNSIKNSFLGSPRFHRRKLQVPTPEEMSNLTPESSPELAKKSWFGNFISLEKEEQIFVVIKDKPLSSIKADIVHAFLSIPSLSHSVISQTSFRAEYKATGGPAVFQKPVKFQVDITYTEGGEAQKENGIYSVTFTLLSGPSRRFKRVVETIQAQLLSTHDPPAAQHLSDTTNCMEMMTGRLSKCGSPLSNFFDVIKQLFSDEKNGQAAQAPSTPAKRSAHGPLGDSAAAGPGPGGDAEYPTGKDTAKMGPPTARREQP
Excerpt: (§1) All protein kinases were of human origin and encoded full length proteins, unless indicated otherwise. They were either expressed as glutathione S-transferase (GST) fusion proteins in Escherichia Coli or as hexahistidine (His6)-tagged proteins in insect Sf21 cells. GST fusion proteins were purified by affinity chromatography on glutathione-Sepharose, and His6-tagged proteins on nickel/nitriloacetate-agarose. The procedures for expressing some of the protein kinases used herein have been detailed previously.^8,9 The following sections outline the DNA vectors synthesised and the procedures used to express and purifying protein kinases that have not been reported previously.
(§2) All assays (25.5 μl) were carried out at room temperature (21° C.) and were linear with respect to time and enzyme concentration under the conditions used. Assays were performed for 30 min using Multidrop Micro reagent dispensers (Thermo Electron Corporation, Waltham, Mass. 02454, USA) in a 96-well format. The concentration of magnesium acetate in the assays was 10 mM and the [γ-33P] ATP (800 cpm/pmol) was used at 5, 20 or 50 μM as indicated, in order to be at or below the Km for ATP for each enzyme. Protein kinases assayed at 5 μM ATP were: —ERK1, ERK8, PKBα, MARK3, Aurora C. Protein kinases assayed at 20 μM ATP were: —JNK1, PDK1, CHK1, CHK2, CDK2 and Aurora B. Protein kinases assayed at 50 μM ATP were: —MNK2, IKKepsilon and TBK1.
(§3) The assays were initiated with MgATP, stopped by addition of 5 μl of 0.5 M orthophosphoric acid and spotted on to P81 filterplates using a unifilter harvester (PerkinElmer, Boston, Mass. 02118, USA). The IC50 values of inhibitors were determined after carrying out assays at 10 different concentrations of each compound.
(§4) Unless stated otherwise, enzymes were diluted in 50 mM Tris/HCl pH 7.5, 0.1 mM EGTA, 1 mg/ml BSA, 0.1% (v/v) 2-mercaptoethanol and assayed in 50 mM Tris/HCl pH 7.5, 0.1 mM EGTA, 0.1% (v/v) 2-mercaptoethanol.

MARK3 = target: T2, MARK3 (Homo sapiens, UniProt P27448); test: MARK3 protein kinase assay; assay type: biochemical; conditions: for remaining activity at 10 µM: 10 μM compound; for residual kinase activity MARK3: 1 μm compound; for remaining activity at 1 µM: 1 μM compound
T2 construct: All protein kinases were of human origin and encoded full length proteins, unless indicated otherwise; His6; made in house; host or cells: Sf21 insect cells
T2 sequence (P27448 whole entry): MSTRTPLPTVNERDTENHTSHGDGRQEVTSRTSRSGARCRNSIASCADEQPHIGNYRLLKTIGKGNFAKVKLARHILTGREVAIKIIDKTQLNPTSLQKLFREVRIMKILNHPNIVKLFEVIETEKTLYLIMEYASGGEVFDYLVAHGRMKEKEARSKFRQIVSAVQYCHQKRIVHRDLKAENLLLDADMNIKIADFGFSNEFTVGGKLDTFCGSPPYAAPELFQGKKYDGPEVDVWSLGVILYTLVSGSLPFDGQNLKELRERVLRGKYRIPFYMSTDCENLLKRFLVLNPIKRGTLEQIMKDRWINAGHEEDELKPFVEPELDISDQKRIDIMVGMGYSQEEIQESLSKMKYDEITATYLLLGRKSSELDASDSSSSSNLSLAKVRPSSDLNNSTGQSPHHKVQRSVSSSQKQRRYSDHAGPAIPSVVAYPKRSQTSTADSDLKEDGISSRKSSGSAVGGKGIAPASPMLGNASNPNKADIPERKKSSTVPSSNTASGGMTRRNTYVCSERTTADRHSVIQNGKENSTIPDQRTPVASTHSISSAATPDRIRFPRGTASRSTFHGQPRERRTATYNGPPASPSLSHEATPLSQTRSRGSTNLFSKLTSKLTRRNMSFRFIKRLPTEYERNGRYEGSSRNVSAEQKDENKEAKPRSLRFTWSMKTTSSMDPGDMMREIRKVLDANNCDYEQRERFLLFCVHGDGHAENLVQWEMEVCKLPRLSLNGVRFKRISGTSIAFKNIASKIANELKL
Excerpt: as §1
The following kinases were expressed in Sf21 cells: Aurora B and Aurora C, extra-cellular signal-regulated kinase 8 (ERK8), microtubule affinity regulating kinase 3 (MARK3), protein kinase Bα[118-480][S473D], protein kinase Bβ (PKBβ[120-481][S474D], 3-phosphoinositide-dependent protein kinase-1 [52-556]
as §2, §3
ERK1 and ERK8 were both assayed against myelin basic protein (MBP, 0.33 mg/ml). MARK3 was assayed against the peptide […] (300 μM), MNK2 against the eIF4E protein (0.5 mg/ml). PKBβ was assayed against the peptide […] (30 μM). TBK1 were assayed against ([…]) (300 μM). The substrates used for other protein kinases were described previously.^8,9
as §4

[1] = test system: panel of different kinases; test: Selectivity across kinase panel (Gini coefficient); assay type: biochemical, human; conditions: for GINI Coefficient: value between 0 and 1, higher = more selective
Excerpt: Table compares the activity of Example 23 with cyclobutanecarboxylic acid {3-[5-bromo-2-(3-fluoro-phenylamino)-pyrimidin-4-ylamino]-propyl}-amide (Compound A)^13, against a panel of different kinases, where the residual kinase activity, in %, at two concentrations of the compounds is expressed. The higher the percentage residual activity, the lower the degree of inhibition of the kinase.

IR-HIS = IR-HIS protein kinase assay; assay type: biochemical, human; conditions: for residual kinase activity: IR-HIS
Excerpt: as §1, §2, §3, §4

PRK2 = target: T3, PRK2 (Homo sapiens, UniProt Q16513); test: PRK2 protein kinase assay; assay type: biochemical; conditions: for remaining activity at 10 µM: 10 μM compound; for residual kinase activity PRK2: 1 μm compound; for remaining activity at 1 µM: 1 μM compound
T3 construct: All protein kinases were of human origin and encoded full length proteins, unless indicated otherwise; made in house
T3 sequence (Q16513 501-984 limits assumed): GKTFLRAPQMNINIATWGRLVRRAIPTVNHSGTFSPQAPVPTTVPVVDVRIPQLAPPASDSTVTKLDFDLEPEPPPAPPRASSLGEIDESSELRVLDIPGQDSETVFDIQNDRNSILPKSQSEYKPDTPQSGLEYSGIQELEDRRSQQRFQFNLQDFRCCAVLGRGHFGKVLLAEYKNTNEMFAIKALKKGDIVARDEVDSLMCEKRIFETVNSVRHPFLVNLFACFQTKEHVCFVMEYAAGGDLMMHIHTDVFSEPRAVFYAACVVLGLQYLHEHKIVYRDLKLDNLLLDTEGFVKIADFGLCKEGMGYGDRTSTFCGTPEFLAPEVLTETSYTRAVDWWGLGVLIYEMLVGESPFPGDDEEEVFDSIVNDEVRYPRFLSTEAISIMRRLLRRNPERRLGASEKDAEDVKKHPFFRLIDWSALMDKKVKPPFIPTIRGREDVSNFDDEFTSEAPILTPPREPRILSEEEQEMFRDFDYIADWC
Excerpt: as §1, §2, §3, §4

[2] = read-out: residual kinase activity BRSK2
[3] = read-out: residual kinase activity MARK3
[4] = read-out: residual kinase activity PRK2
[5] = BRSK2, read-out: residual kinase activity
[6] = MARK3, 5 μM ATP, read-out: residual kinase activity
[7] = PRK2, read-out: residual kinase activity

| SMILES | remaining activity at 10 µM (BRSK2; [2]) [%] | residual kinase activity BRSK2 (BRSK2) [%] | remaining activity at 10 µM (MARK3; [3]) [%] | residual kinase activity MARK3 (MARK3) [%] | GINI Coefficient ([1]; @ 10 μM) | GINI Coefficient ([1]; in words) | residual kinase activity IR-HIS (IR-HIS; 10 μM compound) [%] | residual kinase activity IR-HIS (IR-HIS; 1 μm compound) [%] | remaining activity at 10 µM (PRK2; [4]) [%] | residual kinase activity PRK2 (PRK2) [%] | remaining activity at 1 µM (BRSK2; [5]) [%] | remaining activity at 10 µM (BRSK2; [5]) [%] | remaining activity at 1 µM (MARK3; [6]) [%] | remaining activity at 10 µM (MARK3; [6]) [%] | selectivity across kinase panel ([1]; in words) | residual kinase activity (IR-HIS; 1 μM compound) [%] | residual kinase activity (IR-HIS; 10 μM compound) [%] | remaining activity at 1 µM (PRK2; [7]) [%] | remaining activity at 10 µM (PRK2; [7]) [%] |
| --- | --- | --- | --- | --- | --- | --- | --- | --- | --- | --- | --- | --- | --- | --- | --- | --- | --- | --- | --- |
| O=C(NCCCNc1nc(Nc2cccc(F)c2)ncc1Br)C1CCC1 [Compound A, cyclobutanecarboxylic acid {3-[5-bromo-2-(3-fluoro-phenylamino)-pyrimidin-4-ylamino]-propyl}-amide, reference compound] | 6 | 23 | 2 | 3 | 0.19 | significantly lower value than Example 23 | 69 | 91 | 4 | 24 | – | – | – | – | – | – | – | – | – |
| O=C(NCCCNc1nc(Nc2cccc(F)c2)ncc1C1CC1)C1CCC1 [Example 23, Cyclobutanecarboxylic acid {3-[5-cyclopropyl-2-(3-fluoro-phenylamino)-pyrimidin-4-ylamino]-propyl}-amide] | 26 | 64 | 1 | 0 | 0.35 | – | 86 | 105 | 60 | 67 | 64 | 26 | 0 | 1 | significant improvement of selectivity across this kinase panel | 105 | 86 | 67 | 60 |
| O=C(NCCCNc1nc(Nc2cccc(N3CCCC3=O)c2)ncc1C1CC1)c1cccs1 [Example 47, Thiophene-2-carboxylic acid (3-{5-cyclopropyl-2-[3-(2-oxo-pyrrolidin-1-yl)-phenylamino]-pyrimidin-4-ylamino}-propyl)-amide. Hydrochloride salt] | – | – | – | – | – | – | – | – | – | – | 91 | 36 | 15 | 4 | – | 105 | 85 | 76 | 68 |
| O=C(NCCCNc1nc(Nc2cccnc2)ncc1C1CC1)c1cccs1 [Example 50, Thiophene-2-carboxylic acid {3-[5-cyclopropyl-2-(pyridin-3-ylamino)-pyrimidin-4-ylamino]-propyl}-amide] | – | – | – | – | – | – | – | – | – | – | 87 | 42 | 13 | 2 | – | 109 | 109 | 68 | 58 |
